Values quoted from earlier work in patent publication US12661351B2, “Stable liquid compositions of posaconazole” (INVENGENE PRIVATE LIMITED, priority 2020, dated 2026).
Read-outs that look alike come from different tables or passages of the source.

Solubility (aqueous solutions at pH>4): less than 1 mcg/ml
Solubility (strong acidic (aqueous) solutions of pH 1 or lower): about 790 mcg/ml
SMILES: CC[C@@H]([C@H](C)O)n1ncn(-c2ccc(N3CCN(c4ccc(OC[C@@H]5CO[C@@](Cn6cncn6)(c6ccc(F)cc6F)C5)cc4)CC3)cc2)c1=O [Posaconazole]
